The record followed here is patent US4574127A, “Oxazoles and thiazoles containing an aminohydroxypropoxyphenyl moiety” (Merck & Co., Inc., priority 1984, dated 1986).

Experiment [1] concerns β2. Briefly: β2 potency: inhibition of isoproterenol-induced relaxation of isolated guinea pig tracheal chains contracted with PGF2α. As to conditions: ratio of ED50 for pulmonary effect (β2) : ED50 for cardiac effect (β1); over 1 = cardioselective. The procedure: (§1) Expressed in different terms, a smaller amount of a compound of the invention is required to block isoproterenol-induced elevation in heart rate than is required to block the isoproterenol-induced relaxation of the bronchi. […] Med. Chem., 26, 956-7 (1983) pursuant to which in vitro β-adrenergic blocking activity is determined by the interaction with β1 -receptor via inhibition of the positive chronotropic actions of isoproterenol in isolated guinea pig atrial preparations. β2 potency is determined by using isolated guinea pig tracheal chains contracted with PGF2α and by measuring inhibition of isopreterenol-induced relaxation.

Experiment [2] concerns the target T1, β2 (Cavia porcellus, UniProt Q8K4Z4).
T1 construct: isolated guinea pig tracheal chains; from tissue; host or cells: guinea pig trachea
The experiment is described as above. Particulars: isolated guinea pig tracheal chains contracted with PGF2α, vs isoproterenol, in vitro; for Kb: read-out: β2 pA2 (converted). On the procedure:
as §1

The next experiment concerns the target T2, β1-receptor (Cavia porcellus, UniProt H0W3H1).
T2 construct: isolated guinea pig atrial preparations; from tissue; host or cells: guinea pig atria
Briefly: in vitro β-adrenergic blocking activity: inhibition of positive chronotropic actions of isoproterenol in isolated guinea pig atrial preparations. Particulars: vs isoproterenol, read-out: β1 pA2 (converted). The procedure: as §1

T2 sequence (H0W3H1 1-470): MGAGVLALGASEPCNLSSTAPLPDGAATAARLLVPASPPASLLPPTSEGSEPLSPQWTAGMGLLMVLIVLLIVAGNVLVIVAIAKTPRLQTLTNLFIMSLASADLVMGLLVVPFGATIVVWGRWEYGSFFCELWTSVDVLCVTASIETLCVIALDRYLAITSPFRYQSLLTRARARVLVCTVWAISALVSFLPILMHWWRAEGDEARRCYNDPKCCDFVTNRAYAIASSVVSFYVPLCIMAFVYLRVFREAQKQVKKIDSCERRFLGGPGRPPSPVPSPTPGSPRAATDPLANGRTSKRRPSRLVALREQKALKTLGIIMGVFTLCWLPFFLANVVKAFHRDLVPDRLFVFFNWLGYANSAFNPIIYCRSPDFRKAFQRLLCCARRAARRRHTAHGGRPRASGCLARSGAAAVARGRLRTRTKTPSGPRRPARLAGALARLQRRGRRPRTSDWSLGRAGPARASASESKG
T1 sequence (Q8K4Z4 whole entry): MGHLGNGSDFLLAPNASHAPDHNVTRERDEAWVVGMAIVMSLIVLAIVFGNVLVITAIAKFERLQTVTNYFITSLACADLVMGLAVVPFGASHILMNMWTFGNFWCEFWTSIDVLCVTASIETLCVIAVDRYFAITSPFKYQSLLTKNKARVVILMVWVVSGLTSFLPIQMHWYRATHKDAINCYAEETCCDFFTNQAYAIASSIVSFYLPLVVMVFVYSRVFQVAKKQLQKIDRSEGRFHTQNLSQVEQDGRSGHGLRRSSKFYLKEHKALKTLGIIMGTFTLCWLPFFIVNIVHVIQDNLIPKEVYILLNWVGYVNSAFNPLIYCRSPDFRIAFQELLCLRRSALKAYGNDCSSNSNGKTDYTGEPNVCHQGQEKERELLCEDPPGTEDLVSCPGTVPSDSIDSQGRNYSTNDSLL

For `COc1ccc(CCNC[C@H](O)COc2ccc(-c3nccs3)cc2)cc1OC` [Example 2, (S) 2-{p-[3-(3,4-Dimethoxyphenylethyl)amino-2-hydroxypropoxy]phenyl}thiazole], the “β2:β1 ratio (cardioselectivity)” value with β2 [1] was found to be 813. The Kb is 47900 nM at β2 [2] and 58.9 nM on β1-receptor.

`COc1ccc(CCNCC(O)COc2ccc(-c3ncco3)cc2)cc1OC` (stereo not drawn) [Example 1, 2-{p-[3-(3,4-Dimethoxyphenethylamino)-2-hydroxypropoxy]phenyl}oxazole]: in the experiment with β2 [1], the “β2:β1 ratio (cardioselectivity)” value amounted to 19. In addition, the “β2 pA2” value at β2 [2] is listed as 4.67. Further, at β1-receptor, the Kb is 1120 nM.

In the case of `OC(CNC1CC1)COc1ccc(-c2nccs2)cc1` (stereo not drawn) [Example 3, 2-[p-(3-Cyclopropylamino-2-hydroxypropoxy)phenyl]thiazole], the “β2:β1 ratio (cardioselectivity)” value in the experiment on β2 [1] is 85. Moreover, the Kb was 200000 nM at β2 [2] and 2340 nM at β1-receptor.
